Laboratory results from patent publication US11331327B2, “Antibacterial use of halogenated salicylanilides” (UNION therapeutics A/S, priority 2014, dated 2022).
In brackets after ≈: the same amount, converted by molar mass.

System: S. aureus clinical isolates and S. aureus ATCC 29213
Assay: MIC assay according to CLSI criteria, Example 2, S. aureus strains
Format: cell-based, Staphylococcus aureus
Conditions: Staphylococcus aureus
Summary of the method: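 Wells received roughly 5×10^5 S. aureus cells taken in exponential growth, in cation-adjusted MH broth. Plates held aerobically at 37° C for 18 hours.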

Molecule `C=C[C@]1(C)C[C@@H](OC(=O)CS[C@@H]2C[C@H]3CC[C@@H](C2)N3C)[C@]2(C)[C@H](C)CC[C@]3(CCC(=O)[C@H]32)[C@@H](C)[C@@H]1O` [Retapamulin] has an MIC (ATCC29213, strain 9-1862936) of 0.03 µg/mL (≈ 0.0579 µM), an MIC (ATCC29213, strain 9-2625962) of 0.03 µg/mL (≈ 0.0579 µM) and an MIC (ATCC29213, strain 9-2642158) of 0.06 µg/mL (≈ 0.116 µM). It also gave an MIC (ATCC29213, strain 9-2955245) of 0.06 µg/mL (≈ 0.116 µM), an MIC (ATCC29213, strain 9-26422166) of 0.03 µg/mL (≈ 0.0579 µM) and an MIC (ATCC29213, strain 000040C) of 0.03 µg/mL (≈ 0.0579 µM). It also gave an MIC (ATCC29213, strain 000041C) of 0.03 µg/mL (≈ 0.0579 µM), an MIC (ATCC29213, strain 000274T) of 0.06 µg/mL (≈ 0.116 µM) and an MIC (ATCC29213, strain 114660U) of 0.06 µg/mL (≈ 0.116 µM). It also gave an MIC (ATCC29213, strain 115015T) of 0.06 µg/mL (≈ 0.116 µM), an MIC (ATCC29213, strain 115242C) of 0.03 µg/mL (≈ 0.0579 µM) and an MIC (ATCC29213, strain 115263C) of 0.03 µg/mL (≈ 0.0579 µM). It also gave an MIC (ATCC29213, strain 115268C) of 0.03 µg/mL (≈ 0.0579 µM), an MIC (ATCC29213, strain 115273C) of 0.03 µg/mL (≈ 0.0579 µM) and an MIC (ATCC29213, strain 115295C) of 0.03 µg/mL (≈ 0.0579 µM). The MIC (ATCC29213, strain 115303C) was 0.03 µg/mL (≈ 0.0579 µM), the MIC (ATCC29213, strain 115370U) was 0.06 µg/mL (≈ 0.116 µM) and the MIC (ATCC29213, strain 115427C) was 0.03 µg/mL (≈ 0.0579 µM). The MIC (ATCC29213, strain 115445C) was 0.03 µg/mL (≈ 0.0579 µM), the MIC (ATCC29213, strain 115561C) was 0.03 µg/mL (≈ 0.0579 µM) and the MIC (ATCC29213, strain 115584D) was 0.06 µg/mL (≈ 0.116 µM). It also gave an MIC (ATCC29213, strain 115628T) of 0.03 µg/mL (≈ 0.0579 µM), an MIC (ATCC29213, strain 115690C) of 0.25 µg/mL (≈ 0.483 µM) and an MIC (ATCC29213, strain 115691T) of 0.03 µg/mL (≈ 0.0579 µM). For the same molecule, the MIC (ATCC29213, strain 115740E) was 0.06 µg/mL (≈ 0.116 µM), the MIC (ATCC29213, strain 115810E) was 0.06 µg/mL (≈ 0.116 µM) and the MIC (ATCC29213, strain 115903T) was 0.03 µg/mL (≈ 0.0579 µM). It also gave an MIC (ATCC29213, strain 116122T) of 0.03 µg/mL (≈ 0.0579 µM), an MIC (ATCC29213, strain ATCC 29213) of 0.03 µg/mL (≈ 0.0579 µM) and an MIC (ATCC29213, strain E5-1029252) of 0.03 µg/mL (≈ 0.0579 µM). It also gave an MIC (ATCC29213, strain E5-1029558) of 0.03 µg/mL (≈ 0.0579 µM), an MIC (ATCC29213, strain E5-1030440) of 0.06 µg/mL (≈ 0.116 µM) and an MIC (ATCC29213, strain E5-1030469) of 0.03 µg/mL (≈ 0.0579 µM). It also gave an MIC (ATCC29213, strain E5-1030472) of 0.06 µg/mL (≈ 0.116 µM), an MIC (ATCC29213, strain E5-1030482) of 0.02 µg/mL (≈ 0.0386 µM) and an MIC (ATCC29213, strain E5-1033076 (first line, r202)) of 0.03 µg/mL (≈ 0.0579 µM). It also gave an MIC (ATCC29213, strain E5-1033076 (second line, r203)) of 0.03 µg/mL (≈ 0.0579 µM), an MIC (ATCC29213, strain E5-1033088) of 0.03 µg/mL (≈ 0.0579 µM) and an MIC (ATCC29213, strain E5-1033091) of 0.02 µg/mL (≈ 0.0386 µM). It also gave an MIC (ATCC29213, strain E5-1035277) of 0.03 µg/mL (≈ 0.0579 µM), an MIC (ATCC29213, strain E5-1035284) of 0.03 µg/mL (≈ 0.0579 µM) and an MIC (ATCC29213, strain E5-1035775) of 0.06 µg/mL (≈ 0.116 µM). The MIC (ATCC29213, strain E5-1035779) was 0.03 µg/mL (≈ 0.0579 µM), the MIC (ATCC29213, strain E5-1037958) was 0.06 µg/mL (≈ 0.116 µM) and the MIC (ATCC29213, strain E5-1037971) was 0.03 µg/mL (≈ 0.0579 µM). It also gave an MIC (ATCC29213, strain E5-1038279) of 0.03 µg/mL (≈ 0.0579 µM), an MIC (ATCC29213, strain E5-1038286) of 0.06 µg/mL (≈ 0.116 µM) and an MIC (ATCC29213, strain E5-1038294) of 0.03 µg/mL (≈ 0.0579 µM). For the same molecule, the MIC (ATCC29213, strain E5-1039684) was 0.06 µg/mL (≈ 0.116 µM), the MIC (ATCC29213, strain E5-1039697) was 0.06 µg/mL (≈ 0.116 µM) and the MIC (ATCC29213, strain E5-1041977) was 0.03 µg/mL (≈ 0.0579 µM). For the same molecule, the MIC (ATCC29213, strain E5-1041979) was 0.03 µg/mL (≈ 0.0579 µM), the MIC (ATCC29213, strain E5-1041980) was 0.03 µg/mL (≈ 0.0579 µM) and the MIC (ATCC29213, strain E5-1041987) was 0.03 µg/mL (≈ 0.0579 µM). It also gave an MIC (ATCC29213, strain E5-1043184) of 0.03 µg/mL (≈ 0.0579 µM), an MIC (ATCC29213, strain E5-1043668) of 0.06 µg/mL (≈ 0.116 µM) and an MIC (ATCC29213, strain E5-1045179) of 0.06 µg/mL (≈ 0.116 µM). The MIC (ATCC29213, strain E5-1046019) was 0.03 µg/mL (≈ 0.0579 µM), the MIC (ATCC29213, strain E5-1046020) was 0.06 µg/mL (≈ 0.116 µM) and the MIC (ATCC29213, strain E5-1046039) was 0.06 µg/mL (≈ 0.116 µM). It also gave an MIC (ATCC29213, strain E5-1046070) of 0.03 µg/mL (≈ 0.0579 µM), an MIC (ATCC29213, strain E5-1046074) of 0.06 µg/mL (≈ 0.116 µM) and an MIC (ATCC29213, strain E5-1046085) of 0.06 µg/mL (≈ 0.116 µM). For the same molecule, the MIC (ATCC29213, strain E5-1046096) was 0.06 µg/mL (≈ 0.116 µM), the MIC (ATCC29213, strain E5-1046296) was 0.03 µg/mL (≈ 0.0579 µM) and the MIC (ATCC29213, strain E5-1046297) was 0.06 µg/mL (≈ 0.116 µM). The MIC (ATCC29213, strain E5-1046298) was 0.03 µg/mL (≈ 0.0579 µM), the MIC (ATCC29213, strain E5-1046723) was 0.06 µg/mL (≈ 0.116 µM) and the MIC (ATCC29213, strain E5-1047585) was 0.03 µg/mL (≈ 0.0579 µM). For the same molecule, the MIC (ATCC29213, strain E5-1047606) was 0.03 µg/mL (≈ 0.0579 µM), the MIC (ATCC29213, strain E5-1047924) was 0.03 µg/mL (≈ 0.0579 µM) and the MIC (ATCC29213, strain E5-1048204) was 0.03 µg/mL (≈ 0.0579 µM). The MIC (ATCC29213, strain E5-1048428) was 0.06 µg/mL (≈ 0.116 µM), the MIC (ATCC29213, strain E5-1048654) was 0.06 µg/mL (≈ 0.116 µM) and the MIC (ATCC29213, strain E5-1048670) was 0.06 µg/mL (≈ 0.116 µM). For the same molecule, the MIC (ATCC29213, strain EEFIC 01) was 0.03 µg/mL (≈ 0.0579 µM), the MIC (ATCC29213, strain EEFIC 02) was 0.03 µg/mL (≈ 0.0579 µM) and the MIC (ATCC29213, strain K000772) was 0.06 µg/mL (≈ 0.116 µM). The MIC (ATCC29213, strain K000796) was 0.03 µg/mL (≈ 0.0579 µM), the MIC (ATCC29213, strain K000863) was 0.03 µg/mL (≈ 0.0579 µM) and the MIC (ATCC29213, strain K000864) was 0.03 µg/mL (≈ 0.0579 µM). It also gave an MIC (ATCC29213, strain K000866) of 0.03 µg/mL (≈ 0.0579 µM), an MIC (ATCC29213, strain K115498) of 0.03 µg/mL (≈ 0.0579 µM) and an MIC (ATCC29213, strain K115688) of 0.03 µg/mL (≈ 0.0579 µM). The MIC (ATCC29213, strain K115689) was 0.03 µg/mL (≈ 0.0579 µM), the MIC (ATCC29213, strain R000019) was 0.06 µg/mL (≈ 0.116 µM) and the MIC (ATCC29213, strain R000020) was 0.03 µg/mL (≈ 0.0579 µM). It also gave an MIC (ATCC29213, strain R000024) of 0.06 µg/mL (≈ 0.116 µM), an MIC (ATCC29213, strain U115579) of 0.06 µg/mL (≈ 0.116 µM) and an MIC (ATCC 29213 / MRSA, strain MRSA 01) of 0.06 µg/mL (≈ 0.116 µM). It also gave an MIC (ATCC 29213 / MRSA, strain MRSA 02) of 0.06 µg/mL (≈ 0.116 µM), an MIC (ATCC 29213 / MRSA, strain MRSA 03) of 0.03 µg/mL (≈ 0.0579 µM) and an MIC (ATCC 29213 / MRSA, strain MRSA 04) of 0.06 µg/mL (≈ 0.116 µM). It also gave an MIC (ATCC 29213 / MRSA, strain MRSA 05) of 0.03 µg/mL (≈ 0.0579 µM), an MIC (ATCC 29213 / MRSA, strain MRSA 06) of 0.03 µg/mL (≈ 0.0579 µM) and an MIC (ATCC 29213 / MRSA, strain MRSA 07) of 0.06 µg/mL (≈ 0.116 µM). For the same molecule, the MIC (ATCC 29213 / MRSA, strain MRSA 08) was 0.03 µg/mL (≈ 0.0579 µM), the MIC (ATCC 29213 / MRSA, strain MRSA 09) was 0.06 µg/mL (≈ 0.116 µM) and the MIC (ATCC 29213 / MRSA, strain MRSA 10) was 0.06 µg/mL (≈ 0.116 µM). It also gave an MIC (ATCC 29213 / MRSA, strain MRSA 11) of 0.06 µg/mL (≈ 0.116 µM), an MIC (ATCC 29213 / MRSA, strain MRSA 12) of 0.03 µg/mL (≈ 0.0579 µM) and an MIC (ATCC 29213 / MRSA, strain MRSA 13) of 0.06 µg/mL (≈ 0.116 µM). It also gave an MIC (ATCC 29213 / MRSA, strain MRSA 14) of 0.03 µg/mL (≈ 0.0579 µM).
